Columns and labels:
Glutamate receptor 2 [1] = biological target: T1, Glutamate receptor 2 (Rattus norvegicus, UniProt P19491); experiment: Displacement of [3H]AMPA from rat recombinant GluR2(R) RNA-edited flop isoform expressed in baculovirus infected Sf9 cells
Glutamate receptor 1 [2] = biological target: T2, Glutamate receptor 1 (Rattus norvegicus, UniProt P19490); experiment: Agonist activity at rat recombinant GluR1 flip isoform expressed in HEK293 cells assessed as increase in intracellular calcium level by Fluo-4/AM assay; format: functional, cell-based
T2 sequence (P19490 whole entry, canonical isoform): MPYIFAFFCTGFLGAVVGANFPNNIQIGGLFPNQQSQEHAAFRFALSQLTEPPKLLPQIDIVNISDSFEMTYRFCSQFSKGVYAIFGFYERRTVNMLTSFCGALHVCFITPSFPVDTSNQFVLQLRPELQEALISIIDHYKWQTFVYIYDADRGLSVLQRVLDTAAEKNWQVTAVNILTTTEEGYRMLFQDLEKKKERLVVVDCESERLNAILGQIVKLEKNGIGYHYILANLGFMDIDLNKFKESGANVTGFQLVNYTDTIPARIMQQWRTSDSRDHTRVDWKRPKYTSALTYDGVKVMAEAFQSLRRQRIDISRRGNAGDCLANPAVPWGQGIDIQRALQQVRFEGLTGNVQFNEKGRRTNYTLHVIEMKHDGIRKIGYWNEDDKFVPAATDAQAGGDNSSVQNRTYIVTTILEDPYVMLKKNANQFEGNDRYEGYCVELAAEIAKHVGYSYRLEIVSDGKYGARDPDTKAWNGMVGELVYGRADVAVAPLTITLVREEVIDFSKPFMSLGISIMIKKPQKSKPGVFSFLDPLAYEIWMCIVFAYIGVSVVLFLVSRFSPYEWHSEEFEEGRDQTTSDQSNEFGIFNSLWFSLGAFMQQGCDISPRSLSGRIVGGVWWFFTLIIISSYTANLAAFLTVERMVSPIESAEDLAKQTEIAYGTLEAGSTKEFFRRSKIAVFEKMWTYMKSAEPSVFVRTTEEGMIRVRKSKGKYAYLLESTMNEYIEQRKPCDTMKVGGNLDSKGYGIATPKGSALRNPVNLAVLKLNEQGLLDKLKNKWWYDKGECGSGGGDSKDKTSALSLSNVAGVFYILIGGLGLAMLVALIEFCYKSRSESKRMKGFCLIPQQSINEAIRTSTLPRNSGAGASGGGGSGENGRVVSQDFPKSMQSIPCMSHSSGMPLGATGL

Glutamate receptor 4 [3] = biological target: T3, Glutamate receptor 4 (Rattus norvegicus, UniProt P19493); experiment: Displacement of [3H]AMPA from rat recombinant GluR4 flop isoform expressed in baculovirus infected Sf9 cells
T3 sequence (P19493 whole entry, canonical isoform): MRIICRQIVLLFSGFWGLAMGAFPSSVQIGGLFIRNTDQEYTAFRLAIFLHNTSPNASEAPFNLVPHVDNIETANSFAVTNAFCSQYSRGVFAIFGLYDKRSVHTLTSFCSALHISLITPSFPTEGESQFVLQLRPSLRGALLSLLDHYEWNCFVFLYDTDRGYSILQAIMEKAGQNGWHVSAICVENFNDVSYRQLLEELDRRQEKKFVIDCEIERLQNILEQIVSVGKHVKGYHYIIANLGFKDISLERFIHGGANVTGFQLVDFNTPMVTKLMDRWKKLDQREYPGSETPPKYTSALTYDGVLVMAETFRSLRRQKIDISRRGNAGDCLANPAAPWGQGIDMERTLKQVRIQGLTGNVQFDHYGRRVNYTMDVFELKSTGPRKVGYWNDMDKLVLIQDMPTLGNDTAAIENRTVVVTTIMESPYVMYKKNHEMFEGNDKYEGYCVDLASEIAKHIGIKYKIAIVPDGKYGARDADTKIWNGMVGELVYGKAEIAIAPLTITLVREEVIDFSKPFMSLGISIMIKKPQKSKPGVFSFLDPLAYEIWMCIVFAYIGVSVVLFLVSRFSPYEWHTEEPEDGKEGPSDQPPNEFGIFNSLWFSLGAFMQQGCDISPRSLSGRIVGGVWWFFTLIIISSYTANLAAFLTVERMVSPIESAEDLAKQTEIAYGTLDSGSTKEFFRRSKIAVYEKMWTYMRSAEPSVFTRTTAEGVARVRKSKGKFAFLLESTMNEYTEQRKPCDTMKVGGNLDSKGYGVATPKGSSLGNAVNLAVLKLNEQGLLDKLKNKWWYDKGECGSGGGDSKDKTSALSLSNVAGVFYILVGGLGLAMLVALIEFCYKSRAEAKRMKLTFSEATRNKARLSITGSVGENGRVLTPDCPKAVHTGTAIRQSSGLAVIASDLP

Glutamate receptor 1 [4] = biological target: T2, Glutamate receptor 1; experiment: Agonist activity at ConA-treated rat GluR1 flip isoform expressed in Xenopus laevis oocytes assessed as glutamic acid-induced maximal current by two-electrode voltage clamp method; format: functional, cell-based, Oocyte
[5] = Displacement of [3H]AMPA from AMPA receptor in rat cortical synaptosomes; format: subcellular, Brain
Glutamate receptor 1 [6] = biological target: T2, Glutamate receptor 1; experiment: Displacement of [3H]AMPA from rat recombinant GluR1 flop isoform expressed in baculovirus infected Sf9 cells
Glutamate receptor 3 [7] = biological target: T4, Glutamate receptor 3 (Rattus norvegicus, UniProt P19492); experiment: Agonist activity at rat recombinant GluR3 flip isomer expressed in HEK293 cells assessed as increase in intracellular calcium level by Fluo-4/AM assay; format: functional, cell-based
T4 sequence (P19492 whole entry): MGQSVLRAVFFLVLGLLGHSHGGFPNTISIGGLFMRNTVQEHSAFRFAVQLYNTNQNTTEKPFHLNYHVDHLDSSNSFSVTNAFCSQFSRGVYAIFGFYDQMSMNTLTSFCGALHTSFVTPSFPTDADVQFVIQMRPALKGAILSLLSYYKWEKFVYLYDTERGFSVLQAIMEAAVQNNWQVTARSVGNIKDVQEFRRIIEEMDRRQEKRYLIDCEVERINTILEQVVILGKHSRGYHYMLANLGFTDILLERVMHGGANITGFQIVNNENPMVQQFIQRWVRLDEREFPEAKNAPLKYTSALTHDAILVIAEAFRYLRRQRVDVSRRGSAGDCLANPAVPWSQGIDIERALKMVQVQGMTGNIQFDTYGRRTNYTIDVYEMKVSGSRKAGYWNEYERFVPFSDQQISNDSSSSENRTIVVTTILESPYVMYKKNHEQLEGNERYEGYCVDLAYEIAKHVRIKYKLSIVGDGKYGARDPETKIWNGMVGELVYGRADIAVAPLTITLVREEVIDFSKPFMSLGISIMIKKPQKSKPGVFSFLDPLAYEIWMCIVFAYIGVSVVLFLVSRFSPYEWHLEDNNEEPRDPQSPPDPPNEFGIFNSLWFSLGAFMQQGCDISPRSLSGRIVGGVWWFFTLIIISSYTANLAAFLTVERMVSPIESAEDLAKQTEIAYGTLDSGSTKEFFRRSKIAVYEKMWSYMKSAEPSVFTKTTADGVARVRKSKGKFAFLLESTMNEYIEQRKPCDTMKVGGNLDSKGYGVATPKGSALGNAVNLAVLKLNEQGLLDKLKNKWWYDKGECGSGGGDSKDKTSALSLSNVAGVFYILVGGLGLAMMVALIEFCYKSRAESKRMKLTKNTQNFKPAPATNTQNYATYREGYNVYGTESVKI

[8] = biological target: Glutamate receptor 4 (Rattus norvegicus) (UniProt P19493); experiment: Agonist activity at rat recombinant GluR4 flip isomer expressed in HEK293 cells assessed as increase in intracellular calcium level by Fluo-4/AM assay relative to glutamic acid; format: functional, cell-based
Glutamate receptor 4 (Rattus norvegicus), sequence (P19493 whole entry): as the sequence (P19493 whole entry, canonical isoform) above

Glutamate receptor 4 [9] = biological target: T3, Glutamate receptor 4; experiment: Agonist activity at rat recombinant GluR4 flip isomer expressed in HEK293 cells assessed as increase in intracellular calcium level by Fluo-4/AM assay; format: functional, cell-based
Glutamate receptor 3 [10] = biological target: T4, Glutamate receptor 3; experiment: Displacement of [3H]AMPA from rat recombinant GluR3 flop isoform expressed in baculovirus infected Sf9 cells
[11] = biological target: Glutamate receptor 1 (Rattus norvegicus) (UniProt P19490); experiment: Agonist activity at rat recombinant GluR1 flip isoform expressed in HEK293 cells assessed as increase in intracellular calcium level by Fluo-4/AM assay relative to glutamic acid; format: functional, cell-based
Glutamate receptor 1 (Rattus norvegicus), sequence (P19490 whole entry, canonical isoform): as the sequence (P19490 whole entry, canonical isoform) above

Glutamate receptor 2 [12] = biological target: T1, Glutamate receptor 2
Description: Agonist activity at rat recombinant GluR2(Q) RNA-edited isoform expressed in HEK293 cells assessed as increase in intracellular calcium level by Fluo-4/AM assay

Glutamate NMDA receptor [13] = experiment: Displacement of [3H]CGP from NMDA receptor in rat cortical synaptosomes; format: subcellular, Brain
[14] = Displacement of [3H]KA from KA receptor in rat cortical synaptosomes; format: subcellular, Brain
[15] = biological target: Glutamate receptor 3 (Rattus norvegicus) (UniProt P19492); experiment: Agonist activity at rat recombinant GluR3 flip isomer expressed in HEK293 cells assessed as increase in intracellular calcium level by Fluo-4/AM assay relative to glutamic acid; format: functional, cell-based
Glutamate receptor 3 (Rattus norvegicus), sequence (P19492 whole entry, canonical isoform): as the sequence (P19492 whole entry) above

[16] = biological target: T5, Glutamate receptor ionotropic, kainate 2 (Rattus norvegicus, UniProt P42260); experiment: Displacement of [3H]KA from rat recombinant GluR6(VCR) RNA-edited isoform expressed in baculovirus infected Sf9 cells
[17] = biological target: Glutamate receptor ionotropic, kainate 3 (Rattus norvegicus, UniProt P42264); experiment: Displacement of [3H]SYM from rat recombinant GluR7A expressed in baculovirus infected Sf9 cells
[18] = biological target: T6, Glutamate receptor ionotropic, kainate 1 (Rattus norvegicus, UniProt P22756); experiment: Agonist activity at ConA-treated rat GluR5(Q) RNA-edited isoform expressed in Xenopus laevis oocytes assessed as glutamic acid-induced maximal current by two-electrode voltage clamp method; format: functional, cell-based, Oocyte
T6 sequence (P22756 whole entry, canonical isoform): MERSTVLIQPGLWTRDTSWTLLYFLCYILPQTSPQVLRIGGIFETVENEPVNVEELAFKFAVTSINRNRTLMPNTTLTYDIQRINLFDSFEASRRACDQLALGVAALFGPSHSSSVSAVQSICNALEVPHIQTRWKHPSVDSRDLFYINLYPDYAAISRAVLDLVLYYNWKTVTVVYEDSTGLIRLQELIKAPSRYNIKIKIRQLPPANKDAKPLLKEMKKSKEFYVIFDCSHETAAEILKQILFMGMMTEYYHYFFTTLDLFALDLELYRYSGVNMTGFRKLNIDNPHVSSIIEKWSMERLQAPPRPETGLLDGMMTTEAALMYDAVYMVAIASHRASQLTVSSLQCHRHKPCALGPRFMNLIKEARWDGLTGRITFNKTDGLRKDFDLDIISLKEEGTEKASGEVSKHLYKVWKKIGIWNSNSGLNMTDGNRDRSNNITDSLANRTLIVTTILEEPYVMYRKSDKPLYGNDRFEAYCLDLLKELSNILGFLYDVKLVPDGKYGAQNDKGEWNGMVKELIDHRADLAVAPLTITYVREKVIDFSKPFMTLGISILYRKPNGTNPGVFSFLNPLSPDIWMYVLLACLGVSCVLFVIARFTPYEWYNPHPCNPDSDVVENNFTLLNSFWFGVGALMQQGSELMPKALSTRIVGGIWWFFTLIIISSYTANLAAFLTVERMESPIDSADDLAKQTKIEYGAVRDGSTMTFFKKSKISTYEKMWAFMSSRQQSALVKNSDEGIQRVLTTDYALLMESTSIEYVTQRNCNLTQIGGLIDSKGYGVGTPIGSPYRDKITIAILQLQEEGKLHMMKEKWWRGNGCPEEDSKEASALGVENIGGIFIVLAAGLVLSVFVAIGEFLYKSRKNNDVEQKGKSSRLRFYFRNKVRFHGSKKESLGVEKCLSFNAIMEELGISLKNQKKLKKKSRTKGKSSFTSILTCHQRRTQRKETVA

[19] = biological target: T6, Glutamate receptor ionotropic, kainate 1; experiment: Displacement of [3H]SYM from rat recombinant GluR5(Q) RNA-edited isoform expressed in baculovirus infected Sf9 cells
[20] = biological target: T6, Glutamate receptor ionotropic, kainate 1
Description: Agonist activity at rat recombinant GluR5(Q) RNA-edited isoform expressed in HEK293 cells assessed as increase in intracellular calcium level by Fluo-4/AM assay

[21] = biological target: Glutamate NMDA receptor; Grin1/Grin2a (Rattus norvegicus, UniProt P35439+Q00959); experiment: Agonist activity at ConA-treated rat NR1/NR2A expressed in Xenopus laevis oocytes assessed as glycine-induced maximal current by two-electrode voltage clamp method; format: functional, cell-based, Oocyte
[22] = biological target: T5, Glutamate receptor ionotropic, kainate 2; experiment: Agonist activity at rat recombinant GluR6(Q) RNA-edited isoform expressed in HEK293 cells assessed as increase in intracellular calcium level by Fluo-4/AM assay; format: functional, cell-based
Glutamate NMDA receptor [23] = experiment: Displacement of […] from NMDA receptor in rat cortical synaptosomes; format: subcellular, Brain

T1 sequence (P19491 whole entry, canonical isoform): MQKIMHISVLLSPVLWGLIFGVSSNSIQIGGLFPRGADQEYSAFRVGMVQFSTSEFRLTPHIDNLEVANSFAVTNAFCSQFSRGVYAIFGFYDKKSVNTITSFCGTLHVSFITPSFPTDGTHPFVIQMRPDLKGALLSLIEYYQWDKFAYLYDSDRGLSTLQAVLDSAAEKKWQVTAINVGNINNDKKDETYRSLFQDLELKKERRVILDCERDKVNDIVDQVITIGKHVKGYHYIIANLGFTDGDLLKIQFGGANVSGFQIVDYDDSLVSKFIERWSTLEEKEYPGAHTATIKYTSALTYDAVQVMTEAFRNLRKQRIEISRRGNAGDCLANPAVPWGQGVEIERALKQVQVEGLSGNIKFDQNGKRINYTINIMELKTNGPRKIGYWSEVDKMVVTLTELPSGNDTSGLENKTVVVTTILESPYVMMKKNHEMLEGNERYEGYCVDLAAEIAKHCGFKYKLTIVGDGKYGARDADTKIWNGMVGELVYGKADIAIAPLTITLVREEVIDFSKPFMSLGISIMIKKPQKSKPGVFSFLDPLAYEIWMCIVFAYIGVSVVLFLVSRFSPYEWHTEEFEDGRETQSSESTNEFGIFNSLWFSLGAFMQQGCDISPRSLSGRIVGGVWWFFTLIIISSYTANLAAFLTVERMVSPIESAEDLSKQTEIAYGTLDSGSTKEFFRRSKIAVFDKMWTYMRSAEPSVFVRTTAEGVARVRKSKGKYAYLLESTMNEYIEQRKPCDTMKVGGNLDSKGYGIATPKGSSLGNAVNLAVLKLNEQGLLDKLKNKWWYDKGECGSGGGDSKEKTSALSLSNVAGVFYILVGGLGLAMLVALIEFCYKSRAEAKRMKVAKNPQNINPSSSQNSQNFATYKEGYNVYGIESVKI

Structure (SMILES) | Ki (Glutamate receptor 2 [1]) [µM] | EC50 (Glutamate receptor 1 [2]) [µM] | Ki (Glutamate receptor 4 [3]) [µM] | EC50 (Glutamate receptor 1 [4]) [µM] | IC50 [5] [µM] | Ki (Glutamate receptor 1 [6]) [µM] | EC50 (Glutamate receptor 3 [7]; read-out: EC50) [µM] | Activity [8] [%] | EC50 (Glutamate receptor 4 [9]; read-out: EC50) [µM] | Ki (Glutamate receptor 3 [10]) [µM] | Activity [11] [%] | EC50 (Glutamate receptor 2 [12]) [µM] | Ki (Glutamate NMDA receptor [13]) [µM] | IC50 [14] [µM] | Activity [15] [%] | other results
N[C@@H](CC1=CCCCc2onc(O)c21)C(=O)O | 0.175 | 32 | 0.202 | 4.5 | 0.28 | 0.232 | 13 | 79 | 6.7 | 0.173 | 28 | 92 | > 100 | 1.6 | 54 | –
C=C(C)[C@H]1CN[C@H](C(=O)O)[C@H]1CC(=O)O [KAINIC ACID] | – | – | – | – | – | – | – | 55 | 47 | – | 18 | – | – | – | 45 | –
Cc1onc(O)c1C[C@H](N)C(=O)O [(S)-AMPA] | – | – | – | – | 0.039 | – | – | – | – | – | – | – | – | > 100 | – | –
CC1CCC=C(C[C@H](N)C(=O)O)c2c(O)noc21 (mixture of isomers) | 6.31 | 70 | 2.2 | 70 | 9.7 | 1.55 | 48 | 68 | 35 | 1.11 | 29 | 160 | > 100 | 8.3 | 46 | Ki [16]: > 100 µM; Ki [17]: 1.38 µM; EC50 [18]: 0.24 µM; EC50 (Glutamate receptor 3 [7]; read-out: pEC50 (converted)): 63.1 µM; Ki [19]: 0.00508 µM; EC50 [20]: 0.86 µM; EC50 [21]: > 1000 µM; EC50 (Glutamate receptor 4 [9]; read-out: pEC50 (converted)): 158 µM; EC50 [22]: > 1000 µM
CC(C)(C)c1o[nH]c(=O)c1C[C@H](N)C(=O)O | 1.66 | 730 | 2.14 | 62 | – | 2.78 | 630 | – | – | 2.04 | – | > 1000 | – | – | – | Ki (Glutamate NMDA receptor [23]): > 100 µM
CC(C)(C)c1onc(O)c1C[C@H](N)C(=O)O | – | – | – | – | 1.8 | – | – | 102 | – | – | 101 | – | – | 23 | 100 | EC50 (Glutamate receptor 4 [9]; hek293, read-out: EC50): 150 µM
